The values below come from patent US8933233B2, “1,3,4-oxadiazole and 1,3,4-thiadiazole β-lactamase inhibitors” (priority 2012, dated 2015).

Where a name gives a salt, the structure may show the parent alone.

Test [1] relates to bacterial strains that express KPC β-lactamases. Description: Synergy MIC / standard BLI potentiation MIC assay, strains expressing KPC β-lactamases. The class given is cell-based, isogenic E. coli and clinical isolates. The following applies: more active for at least one KPC strain and/or better spectrum; comparator Avibactam. The procedure:
Unless otherwise indicated, the activity of the BLI compounds can be described by the MIC value obtained from a Synergy MIC assay or a BLI potentiation assay (e.g as described herein), both of which are run in the presence of a β-lactam.
The experimental protocol was performed according to Clinical and Laboratory Standards Institute (CLSI) guidelines with modifications as described below (CLSI guidelines can be derived from the CLSI document M07-A9 published in January 2012: “Methods for Dilution Antimicrobial Susceptibility Tests for Bacteria That Grow Aerobically; Approved Standard-Ninth Edition”).
To prepare for MIC testing, frozen glycerol stocks of clinical isolates (Klebsiella pneumoniae, Eschericia coli, Enterobacter spp, Citrobacter spp, or Pseudomonas aeruginosa) were used to streak for isolated colonies on rich, non-selective, tryptic soy agar containing 5% sheep's blood (TSAB). Frozen glycerol stocks of laboratory engineered, isogenic E. coli strains, which contain cloned β-lactamase expressing plasmids were used to streak for isolated colonies on rich, selective LB agar supplemented with 25 μg/mL tetracycline to maintain the plasmid. All strains were incubated at 37° C. for 18-24 hrs.
On the day of testing, primary cultures were started by scraping off 5-10 colonies from the TSAB plates containing clinical strains or the tetracycline supplemented LB plates containing engineered strains. The clinical strain material was suspended in ˜5 mL of cation adjusted Mueller Hinton Broth (CAMHB) in 14 mL culture tubes. The engineered strain material was suspended in CAMHB (supplemented with 25 μg/mL tetracycline) in 14 mL culture tubes. All strains were incubated at 37° C. with aeration (200 rpm) for ˜2 hrs until the optical density at 600 nm (OD600) was ≧0.1.
The two compound components of the assay were each diluted in CAMHB and added to the 96-well broth microdilution assay plates. 50 μL of the β-lactam was added to each well of the assay plate in 2-fold dilutions with final concentrations ranging from 128 to 0.13 μg/mL. 25 μL of the BLI compound was added to all wells in the broth microdilution plates at a final concentration of 4 μg/mL. Inoculum cultures were prepared by standardizing the primary cultures to OD600=0.1 and then adding 20 μL of the adjusted primary culture per 1 mL CAMHB for clinical strains or CAMHB (supplemented with tetracycline at 100 μg/mL) for engineered strains, so that the final inoculum density was ˜10^5 colony forming units per milliliter. Diluted inoculum cultures were used to inoculate 25 μL per well in 96-well broth microdilution assay plates. The final volume of each well was 100 μL and contained a β-lactam at different concentrations, a BLIcompound at 4 μg/mL concentration, the bacterial culture at an OD600 of approximately 0.001 and when necessary tetracycline at 25 μg/mL.
Plates were incubated for 18-20 hours at 37° C. with aeration (200 rpm). Following incubation, growth was confirmed visually placing plates over a viewing apparatus (stand with a mirror underneath) and then OD600 was measured using a SpectraMax 340PC384 plate reader (Molecular Devices, Sunnyvale, Calif.). Growth was defined as turbidity that could be detected with the naked eye or achieving minimum OD600 of 0.1. MIC values were defined as the lowest concentration producing no visible turbidity.
The synergy MIC (sMIC) assay determines the concentration of the BLI required to potentiate the activity of a fixed concentration of a β-lactam antibiotic against β-lactamase producing bacterial strains. The experimental protocol was performed according to Clinical and Laboratory Standards Institute (CLSI) guidelines with modifications as described below (CLSI guidelines can be derived from the CLSI document M07-A9 published in January 2012: “Methods for Dilution Antimicrobial Susceptibility Tests for Bacteria That Grow Aerobically; Approved Standard-Ninth Edition”). […]

For test [2], the system named is bacterial strains that express the class D cephalosporinase OXA-15. Description: Synergy MIC / standard BLI potentiation MIC assay, strains expressing OXA-15. The following applies: in presence of a β-lactam; comparator Avibactam (CCC). It is filed as cell-based, E. coli. Summed up: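 Broth microdilution in CAMHB per CLSI M07-A9, ~10^5 CFU/mL inoculum, 18–20 h at 37 °C with aeration; engineered E. coli kept with 25 μg/mL tetracycline. β-lactam 2-fold from 128 to 0.13 μg/mL with BLI fixed at 4 μg/mL, or BLI serially diluted with β-lactam fixed; MIC is lowest concentration without visible turbidity.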

In the case of `N[C@H]1C[C@H](c2nnc([C@@H]3CC[C@@H]4CN3C(=O)N4OS(=O)(=O)O)o2)C1` [Compound 727, (2S,5R)-2-(5-((1r,3S)-3-aminocyclobutyl)-1,3,4-oxadiazol-2-yl)-7-oxo-1,6-diazabicyclo[3.2.1]octan-6-yl hydrogen sulfate], in test [1], the “activity and/or spectrum of activity against bacterial strains that express KPC β-lactamases, compared with Avibactam” value was “more active than Avibactam”. In addition, the “activity against bacterial strains that express OXA-15, compared with Avibactam” value in test [2] is recorded as “more active than Avibactam”.
For `NCc1nnc([C@@H]2CC[C@@H]3CN2C(=O)N3OS(=O)(=O)O)o1` [Compound 702, (2S,5R)-2-(5-(aminomethyl)-1,3,4-oxadiazol-2-yl)-7-oxo-1,6-diazabicyclo[3.2.1]octan-6-yl hydrogen sulfate], the “activity and/or spectrum of activity against bacterial strains that express KPC β-lactamases, compared with Avibactam” value in test [1] was “more active than Avibactam”. Moreover, in test [2], the “activity against bacterial strains that express OXA-15, compared with Avibactam” value was “more active than Avibactam”.
Regarding `O=C1N2C[C@@H](CC[C@H]2c2nnc([C@H]3CNCCN3)o2)N1OS(=O)(=O)O` [Compound 779, (2S,5R)-7-oxo-2-(5-((R)-piperazin-2-yl)-1,3,4-oxadiazol-2-yl)-1,6-diazabicyclo[3.2.1]octan-6-yl hydrogen sulfate], the “activity and/or spectrum of activity against bacterial strains that express KPC β-lactamases, compared with Avibactam” value in test [1] is listed as “more active than Avibactam”. The “activity against bacterial strains that express OXA-15, compared with Avibactam” value in test [2] is recorded as “more active than Avibactam”.
Regarding `O=C1N2C[C@@H](CC[C@H]2c2nnco2)N1OS(=O)(=O)O` [Compound 701, (2S,5R)-2-(1,3,4-oxadiazol-2-yl)-7-oxo-1,6-diazabicyclo[3.2.1]octan-6-yl hydrogen sulfate], the “activity and/or spectrum of activity against bacterial strains that express KPC β-lactamases, compared with Avibactam” value in test [1] was “more active than Avibactam”. For the same molecule, the “activity against bacterial strains that express OXA-15, compared with Avibactam” value in test [2] is listed as “more active than Avibactam”.
`N[C@@H]1CC[C@H](c2nnc([C@@H]3CC[C@@H]4CN3C(=O)N4OS(=O)(=O)O)o2)C1` [Compound 729, (2S,5R)-2-(5-((1S,3R)-3-aminocyclopentyl)-1,3,4-oxadiazol-2-yl)-7-oxo-1,6-diazabicyclo[3.2.1]octan-6-yl hydrogen sulfate]: the “activity and/or spectrum of activity against bacterial strains that express KPC β-lactamases, compared with Avibactam” value in test [1] was “more active than Avibactam”. The “activity against bacterial strains that express OXA-15, compared with Avibactam” value in test [2] was “more active than Avibactam”.
For the molecule `N[C@H]1C[C@@H](c2nnc([C@@H]3CC[C@@H]4CN3C(=O)N4OS(=O)(=O)O)s2)C1` [Compound 795, (2S,5R)-2-(5-((1s,3R)-3-aminocyclobutyl)-1,3,4-thiadiazol-2-yl)-7-oxo-1,6-diazabicyclo[3.2.1]octan-6-yl hydrogen sulfate], in test [1], the “activity and/or spectrum of activity against bacterial strains that express KPC β-lactamases, compared with Avibactam” value is reported as “more active than Avibactam”. The “activity against bacterial strains that express OXA-15, compared with Avibactam” value in test [2] is listed as “more active than Avibactam”.
In the case of `N[C@@H]1CN[C@@H](c2nnc([C@@H]3CC[C@@H]4CN3C(=O)N4OS(=O)(=O)O)o2)C1` [Compound 763, (2S,5R)-2-(5-((2R,4S)-4-aminopyrrolidin-2-yl)-1,3,4-oxadiazol-2-yl)-7-oxo-1,6-diazabicyclo[3.2.1]octan-6-yl hydrogen sulfate], the “activity and/or spectrum of activity against bacterial strains that express KPC β-lactamases, compared with Avibactam” value in test [1] is “more active than Avibactam”. Moreover, the “activity against bacterial strains that express OXA-15, compared with Avibactam” value in test [2] is “more active than Avibactam”.
Take `N[C@H]1CN[C@H](c2nnc([C@@H]3CC[C@@H]4CN3C(=O)N4OS(=O)(=O)O)o2)C1` [Compound 762, (2S,5R)-2-(5-((2S,4R)-4-aminopyrrolidin-2-yl)-1,3,4-oxadiazol-2-yl)-7-oxo-1,6-diazabicyclo[3.2.1]octan-6-yl hydrogen sulfate]: the “activity and/or spectrum of activity against bacterial strains that express KPC β-lactamases, compared with Avibactam” value in test [1] was “more active than Avibactam”. The “activity against bacterial strains that express OXA-15, compared with Avibactam” value in test [2] is “more active than Avibactam”.
Turning to `N=C(N)NCCc1nnc([C@@H]2CC[C@@H]3CN2C(=O)N3OS(=O)(=O)O)o1` [Compound 705, (2S,5R)-2-(5-(2-guanidinoethyl)-1,3,4-oxadiazol-2-yl)-7-oxo-1,6-diazabicyclo[3.2.1]octan-6-yl hydrogen sulfate], in test [1], the “activity and/or spectrum of activity against bacterial strains that express KPC β-lactamases, compared with Avibactam” value is reported as “more active than Avibactam”. Besides, the “activity against bacterial strains that express OXA-15, compared with Avibactam” value in test [2] was “more active than Avibactam”.
Regarding `N=C(N)Nc1nnc([C@@H]2CC[C@@H]3CN2C(=O)N3OS(=O)(=O)O)o1` [Compound 738, (2S,5R)-2-(5-guanidino-1,3,4-oxadiazol-2-yl)-7-oxo-1,6-diazabicyclo[3.2.1]octan-6-yl hydrogen sulfate], the “activity and/or spectrum of activity against bacterial strains that express KPC β-lactamases, compared with Avibactam” value in test [1] was “more active than Avibactam”. In test [2], the “activity against bacterial strains that express OXA-15, compared with Avibactam” value was “more active than Avibactam”.
In the case of `NC1(Cc2nnc([C@@H]3CC[C@@H]4CN3C(=O)N4OS(=O)(=O)O)o2)CC1` [Compound 724, (2S,5R)-2-(5-((1-aminocyclopropyl)methyl)-1,3,4-oxadiazol-2-yl)-7-oxo-1,6-diazabicyclo[3.2.1]octan-6-yl hydrogen sulfate], the “activity and/or spectrum of activity against bacterial strains that express KPC β-lactamases, compared with Avibactam” value in test [1] is listed as “more active than Avibactam”. The “activity against bacterial strains that express OXA-15, compared with Avibactam” value in test [2] was “more active than Avibactam”.
For the molecule `O=C1N2C[C@@H](CC[C@H]2c2nnc(CN[C@H]3CCNC3)o2)N1OS(=O)(=O)O` [Compound 765, (2S,5R)-7-oxo-2-(5-(((S)-pyrrolidin-3-ylamino)methyl)-1,3,4-oxadiazol-2-yl)-1,6-diazabicyclo[3.2.1]octan-6-yl hydrogen sulfate], the “activity and/or spectrum of activity against bacterial strains that express KPC β-lactamases, compared with Avibactam” value in test [1] was “more active than Avibactam”. The “activity against bacterial strains that express OXA-15, compared with Avibactam” value in test [2] was “more active than Avibactam”.
Turning to `C[n+]1ccc(-c2nnc([C@@H]3CC[C@@H]4CN3C(=O)N4OS(=O)(=O)[O-])o2)cc1` [Compound 782, (2S,5R)-2-(5-(1-methylpyridin-1-ium-4-yl)-1,3,4-oxadiazol-2-yl)-7-oxo-1,6-diazabicyclo[3.2.1]octan-6-yl sulfate], the “activity and/or spectrum of activity against bacterial strains that express KPC β-lactamases, compared with Avibactam” value in test [1] is reported as “more active than Avibactam”. In test [2], the “activity against bacterial strains that express OXA-15, compared with Avibactam” value was “more active than Avibactam”.
In the case of `N=C(N)NC1CC(Cc2nnc([C@@H]3CC[C@@H]4CN3C(=O)N4OS(=O)(=O)O)o2)C1` (stereo partly drawn) [Compound 752, (2S,5R)-2-(5-((3-guanidinocyclobutyl)methyl)-1,3,4-oxadiazol-2-yl)-7-oxo-1,6-diazabicyclo[3.2.1]octan-6-yl hydrogen sulfate], in test [1], the “activity and/or spectrum of activity against bacterial strains that express KPC β-lactamases, compared with Avibactam” value was “more active than Avibactam”. For the same molecule, the “activity against bacterial strains that express OXA-15, compared with Avibactam” value in test [2] is recorded as “more active than Avibactam”.
Consider `N[C@H]1C[C@@H](NCc2nnc([C@@H]3CC[C@@H]4CN3C(=O)N4OS(=O)(=O)O)o2)C1` [Compound 756, (2S,5R)-2-(5-((((1s,3R)-3-aminocyclobutyl)amino)methyl)-1,3,4-oxadiazol-2-yl)-7-oxo-1,6-diazabicyclo[3.2.1]octan-6-yl hydrogen sulfate], for which the “activity and/or spectrum of activity against bacterial strains that express KPC β-lactamases, compared with Avibactam” value in test [1] is given as “more active than Avibactam”. The “activity against bacterial strains that express OXA-15, compared with Avibactam” value in test [2] is reported as “more active than Avibactam”.
